The record followed here is patent US20110263557A1, “COMPOUNDS AND COMPOSITIONS AS MODULATORS OF GPR119 ACTIVITY” (IRM LLC, priority 2008, published 2011).

This test addresses T1, human GPR119 (Homo sapiens, UniProt Q8TDV5).
T1 construct: expressed in transfected cells
T1 sequence (Q8TDV5 1-335): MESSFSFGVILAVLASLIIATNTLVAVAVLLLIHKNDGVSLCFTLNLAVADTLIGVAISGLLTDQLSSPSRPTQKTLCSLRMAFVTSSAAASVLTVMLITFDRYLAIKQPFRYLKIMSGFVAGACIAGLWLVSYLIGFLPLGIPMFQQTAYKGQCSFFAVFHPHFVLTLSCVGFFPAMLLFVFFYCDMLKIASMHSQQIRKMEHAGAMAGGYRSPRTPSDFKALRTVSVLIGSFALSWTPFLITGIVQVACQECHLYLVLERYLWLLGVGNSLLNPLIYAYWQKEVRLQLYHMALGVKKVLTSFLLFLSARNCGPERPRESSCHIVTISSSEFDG
The test is described as follows: Cyclic AMP assay in stable cell line (Flp-In-CHO-hGPR119, HTRF). In kind it is cell-based. The following applies: Flp-In-CHO-hGPR119 cells, intracellular cAMP by HTRF, 1 mM IBMX, 37° C. for 30 minutes; read-out: CHO-GPR119-HTRF (3158). The procedure: Flp-In-CHO cells (Invitrogen, Cat.#R758-07) are maintained in Ham's F12 medium supplemented with 10% fetal bovine serum, 1% antibiotic mixture and 2 mM L-glutamine. The cells are transfected with a DNA mixture containing human GPR119 in pcDNA5/FRT vector and the pOG44 vector (1:9) using Fugene6 (Roche), according to the manufacturer's instruction. After 48 hours, the medium is changed to medium supplemented with 400 μg/ml hygromycin B to initiate the selection of stably transfected cells.
To test the activity of compounds of the invention, Flp-In-CHO-hGPR119 cells are harvested and resuspended in DMEM plus 3% lipid-depleted fetal bovine serum. Forth μl of cells are plated in 384 well plates at a density of 15,000 cells/well. IBMX (3-isobutyl-1-methyl-xanthine) is added to the cells to a final concentration of 1 mM, followed by the addition of 500 nl of the compound to be tested. The cells are incubated at 37° C. for 30 minutes. Equal volume (20 μl) of the HTRF reagents, anti-cAMP-Cryptate and cAMP-XL665, are added to the cells. The plates are incubated at room temperature for 1 hour and read on a HTRF reader according to the manufacturer's instruction.
Compounds of Formula I, in free form or in pharmaceutically acceptable salt form, produced a concentration-dependent increase in intracellular cAMP level. […] For example, the following tables show some EC50 data for a representative sample of compounds of the invention: […]
In the case of `CCc1cnc(N2CCC(Oc3ccc(CN4CCN(S(=O)(=O)CCCO)CC4)cc3Cl)CC2)nc1` [Example D1, 3-(4-(3-Chloro-4-(1-(5-ethylpyrimidin-2-yl)piperidin-4-yloxy)benzyl)piperazin-1-ylsulfonyl)propan-1-ol], the EC50 worked out at 8 nM. The same measure for `CCc1cnc(N2CCC(Oc3ccc(CN4CCN(S(C)(=O)=O)CC4)c(C)c3)CC2)nc1` [Example A2, 5-ethyl-2-(4-(3-methyl-4-((4-(methylsulfonyl)piperazin-1-yl)methyl)phenoxy)piperidin-1-yl)pyrimidine]: 203 nM; for `CCc1cnc(N2CCC(Oc3ccc(CN4CCN(S(C)(=O)=O)CC4)cc3C(=O)OC)CC2)nc1` [Example A14, methyl 2-(1-(5-ethylpyrimidin-2-yl)piperidin-4-yloxy)-5-((4-(methylsulfonyl)piperazin-1-yl)methyl)benzoate]: 313 nM. For `CCc1cnc(N2CCC(Oc3ccc(CN4CCN(S(C)(=O)=O)CC4)cc3CCCOC)CC2)nc1` [Example C2], the EC50 was 187 nM. Turning to `CCc1cnc(N2CCC(Oc3ccc(CN4CCN(S(C)(=O)=O)CC4)nc3)CC2)nc1` [Example A13, 5-ethyl-2-(4-(6-((4-(methylsulfonyl)piperazin-1-yl)methyl)pyridin-3-yloxy)piperidin-1-yl)pyrimidine], the EC50 stood at 867 nM. The same measure for `CCc1cnc(N2CCC(Oc3ccc(CN4CCN(S(C)(=O)=O)CC4)cc3F)CC2)nc1` [Example A6, 5-ethyl-2-(4-(2-fluoro-4-((4-(methylsulfonyl)piperazin-1-yl)methyl)phenoxy)piperidin-1-yl)pyrimidine]: 20 nM; for `CCc1cnc(N2CCC(Oc3ccc(CN4CC(N(C)S(C)(=O)=O)C4)cc3Cl)CC2)nc1` [Example E15, N-(1-(3-Chloro-4-(1-(5-ethylpyrimidin-2-yl)piperidin-4-yloxy)benzyl)azetidin-3-yl)-N-methylmethanesulfonamide]: 114 nM. The same measure for `Cn1nnc(-c2cnc(N3CCC(Oc4ccc(CN5CCN(S(C)(=O)=O)CC5)cc4Cl)CC3)nc2)n1` [Example B17, 2-(4-(2-Chloro-4-((4-(methylsulfonyl)piperazin-1-yl)methyl)phenoxy)piperidin-1-yl)-5-(2-methyl-2H-tetrazol-5-yl)pyrimidine]: 9 nM; for `CCc1cnc(N2CCC(Oc3ccc(CN4CCN(S(C)(=O)=O)CC4=O)cc3Cl)CC2)nc1` [Example E4, 1-(3-Chloro-4-(1-(5-ethylpyrimidin-2-yl)piperidin-4-yloxy)benzyl)-4-(methylsulfonyl)piperazin-2-one]: 812 nM.

With `CCc1cnc(N2CCC(Oc3ccc(CN4CCN(S(C)(=O)=O)CC4)cc3NCCOC)CC2)nc1` [Example C9, 2-(1-(5-Ethylpyrimidin-2-yl)piperidin-4-yloxy)-N-(2-methoxyethyl)-5-((4-(methylsulfonyl)piperazin-1-yl)methyl)aniline], the EC50 amounted to 136 nM.

Regarding `CCc1cnc(N2CCC(Oc3ccc(CC4CCN(S(C)(=O)=O)CC4)cc3Cl)CC2)nc1` [Example E2, 2-(4-(2-Chloro-4-((1-(methylsulfonyl)piperidin-4-yl)methyl)phenoxy)piperidin-1-yl)-5-ethylpyrimidine], the EC50 was found to be 3 nM.

Regarding `CC1(OC(=O)N2CCC(Oc3ccc(CN4CCN(S(C)(=O)=O)CC4)cc3Cl)CC2)CC1` [Example B3, 1-Methylcyclopropyl 4-(2-chloro-4-((4-(methylsulfonyl)piperazin-1-yl)methyl)phenoxy)piperidine-1-carboxylate], the EC50 is 22 nM. The same measure for `CCc1cnc(N2CCC(Oc3ccc(CN4CCN(S(C)(=O)=O)CC4)cc3)CC2)nc1` [Example A1]: 56 nM; for `CC(C)c1noc(N2CCC(Oc3ccc(CN4CCN(S(C)(=O)=O)CC4)cc3Cl)CC2)n1` [Example B11, 5-(4-(2-chloro-4-((4-(methylsulfonyl)piperazin-1-yl)methyl)phenoxy)piperidin-1-yl)-3-isopropyl-1,2,4-oxadiazole]: 13 nM. The figure for `CCc1cnc(N2CCC(Oc3ccc(CN4CCN(S(C)(=O)=O)CC4)cc3Br)CC2)nc1` [Example A8, 2-(4-(2-bromo-4-((4-(methylsulfonyl)piperazin-1-yl)methyl)phenoxy)piperidin-1-yl)-5-ethylpyrimidine] is 5 nM; for `CC1(OC(=O)N2CCC(Oc3ccc(CN4CCN(S(C)(=O)=O)CC4)cc3)CC2)CC1` [Example B2, 1-Methylcyclopropyl 4-(4-((4-(methylsulfonyl)piperazin-1-yl)methyl)phenoxy)piperidine-1-carboxylate] it is 127 nM. Turning to `CCc1cnc(N2CCC(Oc3ccc(CN4CCN(S(C)(=O)=O)CC4)cc3-c3ccn[nH]3)CC2)nc1` [Example C5, 5-ethyl-2-(4-(4-((4-(methylsulfonyl)piperazin-1-yl)methyl)-2-(1H-pyrazol-5-yl)phenoxy)piperidin-1-yl)pyrimidine], the EC50 came out at 44 nM.

Consider `CN(C)C(=O)c1cnc(N2CCC(Oc3ccc(CN4CCN(S(C)(=O)=O)CC4)cc3Cl)CC2)nc1` [Example B13, 2-(4-(2-chloro-4-((4-(methylsulfonyl)piperazin-1-yl)methyl)phenoxy)piperidin-1-yl)-N,N-dimethylpyrimidine-5-carboxamide], for which the EC50 turned out to be 465 nM.

Take `CCc1cnc(N2CCC(Oc3ccc(CN4CCC(c5nnn(C)n5)CC4)cc3Cl)CC2)nc1` [Example E12, 2-(4-(2-chloro-4-((4-(2-methyl-2H-tetrazol-5-yl)piperidin-1-yl)methyl)phenoxy)piperidin-1-yl)-5-ethylpyrimidine]: the EC50 was found to be 2680 nM. The same measure for `CS(=O)(=O)N1CCN(Cc2ccc(OC3CCN(c4ccc(C(F)(F)F)cn4)CC3)cc2)CC1` [Example B6, 1-(methylsulfonyl)-4-(4-(1-(5-(trifluoromethyl)pyridin-2-yl)piperidin-4-yloxy)benzyl)piperazine]: 220 nM.
